Results reported in patent US9675697B2 (THE REGENTS OF THE UNIVERSITY OF MICHIGAN, priority 2013, dated 2017).
Where two headings read alike, the source gives them in different places.

What was measured:
BRD2 BD2 = BRD2 BD2 (Homo sapiens (Human), UniProt P25440); test: FP competitive binding assay using Cpd. No. 350 as the probe
BRD4 BD2 = BRD4 BD2 (Homo sapiens (Human), UniProt O60885); test: as above
Description: (§3) Fluorescence Polarization (FP) competitive binding studies (see above) were carried out using the FAM labeled fluorescent probe Cpd. No. 350 to determine binding affinities of representative compounds to both BD1 and BD2 of BRD2, BRD3, and BRD4 proteins. Equilibrium dissociation constants (Id) values of Cpd. No. 350 to these six proteins were determined from protein saturation experiments by monitoring the total fluorescence polarization of mixtures composed with the fluorescent probe at a fixed concentration and proteins with increasing concentrations up to full saturation. Serial dilutions of testing protein were mixed with Cpd. No. 350 to a final volume of 200 μl in the assay buffer. […] Plates were incubated at room temperature for 30 minutes with gentle shaking to assure equilibrium. […] Kd values of Cpd.
(§4) The IC50 and Ki values of compounds were determined in a competitive binding experiment as described above. […] FP values were measured as described above. IC50 values were determined by nonlinear regression fitting of the competition curves.

BRD2 BD1 = BRD2 BD1 (Homo sapiens (Human), UniProt P25440); test: as above
Description: as §3, §4

BRD4 BD1 = BRD4 BD1 (Homo sapiens (Human), UniProt O60885); test: as above
Description: as §3, §4

BRD3 BD1 = BRD3 BD1 (Homo sapiens (Human), UniProt Q15059); test: as above
Description: as §3, §4

[1] = system: breast cancer MDA-MB-436 cell line; test: 4-day cell viability assay, WST; format: cell-based; details: read-out: Cell Growth Inhibition (IC50 (nM)) MDA-436 Cell Line (WST assay)
Description: (§1) The effect of representative BET bromodomain inhibitors on cell viability was determined in a 4-day proliferation assay. Cells were maintained in the appropriate culture medium with 10% FBS at 37° C. and an atmosphere of 5% CO2. All the cell lines were used within three months of thawing fresh vials.
(§2) Cells were seeded in 96-well flat bottom (Corning COSTAR, Corning, N.Y., cat#3595) or white opaque cell culture plates (BD Falcon, cat#353296) at a density of 3,000-10,000 cells/well in 75 μl of culture medium. Compounds were serially diluted in the appropriate medium, and 75 μl of the diluted compounds were added to the appropriate wells of the cell plate. After the addition of compounds, the cells were incubated at 37° C. in an atmosphere of 5% CO2 for 4 days. Cell viability was determined using the CellTiter-Glo® Luminescent Cell Viability Assay Kit (Promega, Madison, Wis.) for MOLM-13 cells and WST (2-(2-methoxy-4-nitrophenyl)-3-(4-nitrophenyl)-5-(2,4-disulfophenyl)-2H-tetrazolium, monosodium salt) Cell Counting-8 Kit (Dojindo Molecular Technologies, Inc., Rockville, Md.) for MDA-MB-436 cells according to the manufacturers' instructions.
For the WST assay, WST-8 reagent was added to each well at a final concentration of 10% (v/v), and then the plates were incubated at 37° C. for 1-2 hours for color development. The absorbance was measured at 450 nm using a SPECTRAmax PLUS plate reader (Molecular Devices, Sunnyvale, Calif.). The readings were normalized to the DMSO-treated cells and the half maximal inhibitory concentration (IC50) was calculated by nonlinear regression (four parameters sigmoid fitted with variable slope, least squares fit, and no constraint) analysis using the GraphPad Prism 5 software (GraphPad Software, La Jolla, Calif.).

[2] = system: leukemia MOLM-13 cell line; test: 4-day cell viability assay, CellTiter-Glo; format: cell-based; details: read-out: Cell Growth Inhibition (IC50 (nM)) MOLM-13 Cell Line (CellTiter-Glo assay)
Description: as §1, §2
For the CellTiter-Glo assay, 100 μl of CellTiter-Glo® Reagent was added to each well, and then the plates were incubated at room temperature for 10-20 minutes. The luminescent signal was measured using a Tecan Infinite M1000 multimode microplate reader (Tecan, Morrisville, N.C.). The readings were normalized to the DMSO-treated cells and the IC50 was calculated by nonlinear regression (four parameters sigmoid fitted with variable slope, least squares fit, and no constraint) analysis using the GraphPad Prism 5 software.

BRD3 BD2 = BRD3 BD2 (Homo sapiens (Human), UniProt Q15059); test: FP competitive binding assay using Cpd. No. 350 as the probe
Description: as §3, §4

[3] = read-out: BRD2 BD2 Ki, FP, Cpd. No. 350 probe […]
[4] = read-out: BRD4 BD2 Ki, FP, Cpd. No. 350 probe […]
[5] = read-out: BRD2 BD1 Ki, FP, Cpd. No. 350 probe […]
[6] = read-out: BRD4 BD1 Ki, FP, Cpd. No. 350 probe […]
[7] = read-out: BRD3 BD1 Ki, FP, Cpd. No. 350 probe […]
[8] = Homo sapiens, MDA-MB-436, 96 h, 4 days
[9] = Homo sapiens, MOLM-13, 96 h, 4 days
[10] = read-out: BRD3 BD2 Ki, FP, Cpd. No. 350 probe […]

BRD3 BD1, sequence (Q15059 34-140): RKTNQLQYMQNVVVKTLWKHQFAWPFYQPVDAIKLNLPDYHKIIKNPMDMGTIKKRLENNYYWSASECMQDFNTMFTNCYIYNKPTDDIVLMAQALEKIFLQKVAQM
BRD2 BD2, sequence (P25440 344-453): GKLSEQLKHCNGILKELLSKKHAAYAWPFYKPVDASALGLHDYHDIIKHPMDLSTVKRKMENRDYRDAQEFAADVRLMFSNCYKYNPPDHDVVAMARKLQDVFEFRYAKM
BRD2 BD1, sequence (P25440 74-180): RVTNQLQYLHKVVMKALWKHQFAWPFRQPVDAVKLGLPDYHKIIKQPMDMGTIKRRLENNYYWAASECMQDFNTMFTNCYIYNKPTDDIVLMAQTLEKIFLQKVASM
BRD3 BD2, sequence (Q15059 306-415): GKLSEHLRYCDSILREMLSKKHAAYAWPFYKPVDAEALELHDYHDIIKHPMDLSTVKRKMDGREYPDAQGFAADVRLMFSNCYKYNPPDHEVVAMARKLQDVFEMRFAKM

SMILES | Ki (BRD2 BD2; [3]) | Ki (BRD4 BD2; [4]) | Ki (BRD2 BD1; [5]) | Ki (BRD4 BD1; [6]) | Ki (BRD3 BD1; [7]) | IC50 [1, 8] | IC50 [2, 9] | Ki (BRD3 BD2; [10]) | also measured
COc1cc2c(cc1-c1c(C)noc1C)[nH]c1nc(C)nc(-c3cc(C(=O)NC4CCN(C5CCOCC5)CC4)[nH]c3C(C)C)c12 [Cpd. No. 212, 4-(7-(3,5-Dimethylisoxazol-4-yl)-6-methoxy-2-methyl-9H-pyrimido[4,5-b]indol-4-yl)-5-isopropyl-N-(1-(tetrahydro-2H-pyran-4-yl)piperidin-4-yl)-1H-pyrrole-2-carboxamide] | 4.6 nM | 4.5 nM | 5.7 nM | 17 nM | 10.2 nM | 100 nM | 22 nM | 1 nM | –
COc1cc2c(cc1-c1c(C)noc1C)[nH]c1nc(C)nc(-c3cc(C(=O)NC4CCN(C5COC5)CC4)cc(C(C)(C)C)c3)c12 [Cpd. No. 322] | – | – | – | – | – | – | – | – | IC50 ([1]; Homo sapiens, MDA-MB-436, 96 h): 63.9 nM; IC50 ([2]; Homo sapiens, MOLM-13, 96 h): 19.4 nM
CCc1noc(C)c1-c1cc2[nH]c3ccnc(Cl)c3c2cc1OC [RX-39] | 638 ± 70 nM | 478 ± 69 nM | 1720 ± 892 nM | 1240 ± 549 nM | 668 ± 82 nM | – | – | 406 ± 192 nM | –
COc1cc2c(cc1-c1c(C)noc1C)[nH]c1ccnc(-c3c(-c4ccccc4)n[nH]c3C)c12 [Cpd. No. 26, 4-(8-methoxy-1-(5-methyl-3-phenyl-1H-pyrazol-4-yl)-5H-pyrido[4,3-b]indol-7-yl)-3,5-dimethylisoxazole] | – | – | – | – | – | 696 nM | 431 nM | – | –
COc1cc2c(cc1-c1c(C)noc1C)[nH]c1nc(C)nc(-c3cc(C(=O)NC4CCN(C5COC5)CC4)[nH]c3C(C)C)c12 [Cpd. No. 213, 4-(7-(3,5-Dimethylisoxazol-4-yl)-6-methoxy-2-methyl-9H-pyrimido[4,5-b]indol-4-yl)-5-isopropyl-N-(1-(oxetan-3-yl)piperidin-4-yl)-1H-pyrrole-2-carboxamide] | 7.1 nM | 6.5 nM | 10.5 nM | 20.8 nM | 14 nM | 225 nM | 48 nM | 2.2 nM | –
COc1cc2c(cc1-c1c(C)nn(C)c1C)[nH]c1ccnc(-c3c(C)nn(C)c3C)c12 [Cpd. No. 33, 8-methoxy-1,7-bis(1,3,5-trimethyl-1H-pyrazol-4-yl)-5H-pyrido[4,3-b]indole] | – | – | – | – | – | – | – | – | Ki (BRD2 BD2): 909 ± 272 nM; Ki (BRD4 BD2): 867 ± 107 nM; Ki (BRD2 BD1): 1670 ± 448 nM; Ki (BRD4 BD1): 1726 ± 17 nM; Ki (BRD3 BD1): 1220 ± 100 nM; Ki (BRD3 BD2): 348 ± 12 nM
CCc1noc(CC)c1-c1cc2[nH]c3ccnc(Cl)c3c2cc1OC [RX-45] | – | 8320 ± 3220 nM | – | > 10000 nM | – | – | – | 3440 ± 1980 nM | –
COc1cc2c(cc1-c1c(C)noc1C)[nH]c1nc(C)nc(-c3ccc(NC(=O)N4CCN(C5COC5)CC4)c4ccccc34)c12 [Cpd. No. 317] | – | – | – | – | – | – | – | – | IC50 ([1]; Homo sapiens, MDA-MB-436, 96 h): 169 nM; IC50 ([2]; Homo sapiens, MOLM-13, 96 h): 31.6 nM
COc1cc2c(cc1-c1c(C)noc1C)[nH]c1nc(C)nc(-c3ccc(C(=O)NC4CCN(C5COC5)CC4)c4ccccc34)c12 [Cpd. No. 197, 4-(7-(3,5-Dimethylisoxazol-4-yl)-6-methoxy-2-methyl-9H-pyrimido[4,5-b]indol-4-yl)-N-(1-(oxetan-3-yl)piperidin-4-yl)-1-naphthamide] | 3.6 nM | 8.9 nM | 6.2 nM | 17.1 nM | 10.5 nM | 101 nM | 17.3 nM | 1.3 nM | –
COc1cc2c(cc1-c1c(C)nn(C)c1C)[nH]c1ccnc(Cl)c12 [RX-27] | 2840 ± 574 nM | 1950 ± 175 nM | 5450 ± 1920 nM | 4842 ± 29 nM | 5030 ± 1010 nM | – | – | 2050 ± 142 nM | –
COc1cc2c(cc1-c1c(C)noc1C)[nH]c1nc(C)nc(-c3cccc(C(C)(C)O)c3)c12 [Cpd. No. 183, 2-(3-(7-(3,5-Dimethylisoxazol-4-yl)-6-methoxy-2-methyl-9H-pyrimido[4,5-b]indol-4-yl)phenyl)propan-2-ol] | 8.8 nM | 11.7 nM | 5.2 nM | 7.9 nM | 6.1 nM | 93 nM | 20 nM | 4.7 nM | –
COc1cc2c(cc1-c1c(C)noc1C)[nH]c1nc(C)nc(-c3ccc(C(=O)NC4CCN(C)CC4)c4ccccc34)c12 [Cpd. No. 196, 4-(7-(3,5-Dimethylisoxazol-4-yl)-6-methoxy-2-methyl-9H-pyrimido[4,5-b]indol-4-yl)-N-(1-methylpiperidin-4-yl)-1-naphthamide] | 3.5 nM | 7 nM | 4.3 nM | 12.3 nM | 9.7 nM | 53 nM | 6.8 nM | 1.4 nM | –
COc1cc2c(cc1-c1c(C)noc1C)[nH]c1nc(C)nc(-c3cc(C(=O)NC4CCN(C)CC4)cc(C(C)(C)C)c3)c12 [Cpd. No. 319] | – | – | – | – | – | – | – | – | IC50 ([1]; Homo sapiens, MDA-MB-436, 96 h): 67.4 nM; IC50 ([2]; Homo sapiens, MOLM-13, 96 h): 10 nM
COc1cc2c(cc1-c1c(C)noc1C)[nH]c1nc(C)nc(-c3ccc(C(=O)N4CCN(C)CC4)c4ccccc34)c12 [Cpd. No. 207, (4-(7-(3,5-Dimethylisoxazol-4-yl)-6-methoxy-2-methyl-9H-pyrimido[4,5-b]indol-4-yl)naphthalen-1-yl)(4-methylpiperazin-1-yl)methanone] | 5.1 nM | 4.1 nM | 5.3 nM | 14.7 nM | 10 nM | 58.1 nM | 5.3 nM | 1.3 nM | –
COc1cc2c(cc1-c1c(C)noc1C)[nH]c1nc(C)nc(-c3cc(C(=O)NC4CCN(C)CC4)[nH]c3C(C)C)c12 [Cpd. No. 211, 4-(7-(3,5-Dimethylisoxazol-4-yl)-6-methoxy-2-methyl-9H-pyrimido[4,5-b]indol-4-yl)-5-isopropyl-N-(1-methylpiperidin-4-yl)-1H-pyrrole-2-carboxamide] | 4.9 nM | 5.2 nM | 5.7 nM | 17.2 nM | 10.8 nM | 140 nM | 10.4 nM | 1.2 nM | –
COc1cc2c(cc1-c1c(C)noc1C)[nH]c1nc(C)nc(-c3ccc(NC(=O)N4CCN(C)CC4)c4ccccc34)c12 [Cpd. No. 316] | – | – | – | – | – | – | – | – | IC50 ([1]; Homo sapiens, MDA-MB-436, 96 h): 45.2 nM; IC50 ([2]; Homo sapiens, MOLM-13, 96 h): 7.4 nM
CCc1onc(C)c1-c1cc2[nH]c3ccnc(Cl)c3c2cc1OC [RX-38] | 1880 ± 432 nM | 2180 ± 132 nM | 760 ± 240 nM | 2810 ± 782 nM | 703 ± 432 nM | – | – | 1280 ± 1070 nM | –
COc1cc2c(cc1-c1c(C)noc1C)[nH]c1ccnc(Cl)c12 [RX-3, 4-(1-chloro-8-methoxy-5H-pyrido[4,3-b]indol-7-yl)-3,5-dimethylisoxazole] | 109 ± 10 nM | 194 ± 24 nM | 215 ± 34 nM | 305 ± 26 nM | 144 ± 17 nM | – | – | 63.8 ± 6 nM | –
COc1cc2c(cc1-c1c(C)noc1C)[nH]c1ccnc(-c3c(C)nn(-c4ccccc4)c3C)c12 [Cpd. No. 352, 4-(1-(3,5-dimethyl-1-phenyl-1H-pyrazol-4-yl)-8-methoxy-5H-pyrido[4,3-b]indol-7-yl)-3,5-dimethylisoxazole] | 52.9 ± 2.7 nM | 98.1 ± 6.1 nM | 62.6 ± 9 nM | 103 ± 3 nM | 31.8 ± 1.5 nM | – | – | 35 ± 2 nM | IC50 ([1]; 4 days): 724 nM; IC50 ([2]; 4 days): 751 nM
